Like-named read-outs stand apart in the source and are kept apart here.
Assays:
[1] = tested on: Mycosphaerella graminicola; Anamorph: Septoria tritici; assay: Leaf Blotch of Wheat (SEPTTR) disease control; format: in vivo; details: for pest or weed control at 100 ppm / pest or weed control at 121.5 g/ha: Zymoseptoria tritici; for pest or weed control at 121.5 g/ha: rate 121.5 g/H
In short: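 Seedlings of variety Yuma grew until the first leaf fully emerged. Fungicide solution (acetone/water with Triton X-100) was sprayed to run-off; plants were inoculated with S. tritici spores before or after spraying, held one day dark and two to three days lit at 100% humidity, then kept at 20° C.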

[2] = tested on: Puccinia triticina; Synonym: Puccinia recondite f. Sp. Tritici; assay: Wheat Brown Rust (PUCCRT) disease control; format: in vivo; details: Puccinia triticina, topical; for pest or weed control at 100 ppm: rate 100 ppm; for pest or weed control at 121.5 g/ha: rate 121.5 g/H
In short: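 Brown rust on first-leaf Yuma wheat: spore inoculation before or after spray application (acetone/Triton X-100 solution, or EC with Trycol in track spray), overnight 100% RH at 22 °C, disease developed at 24 °C. Severity scored 0–100% and converted to percent control against untreated.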

[3] = 24 h, 1 Day Protectant, rate 100 ppm, read-out: SEPTTR 1 DP disease control
[4] = 24 h, 1 Day Protectant, read-out: SEPTTR 1 DP disease control
[5] = 72 h, 3 Day Curative, read-out: SEPTTR 3 DC disease control
[6] = 24 h, 1 Day Protectant, read-out: PUCCRT 1 DP disease control
[7] = 72 h, 3 Day Curative, read-out: PUCCRT 3 DC disease control
[8] = 72 h, 3 Day Curative, rate 100 ppm, read-out: SEPTTR 3 DC disease control

COc1ccnc(C(=O)N[C@H]2CCC[C@H](Cc3ccc(C)cc3)[C@@H](OCCCC(F)(F)F)[C@H](C)OC2=O)c1O [Compound F10]
A (80-100): SEPTTR 3 DC disease control ([1]; 3 Day Curative, rate 100 ppm)
0 to 80%: pest or weed control at 121.5 g/ha [2, 7]
80 to 100%: pest or weed control at 100 ppm [1, 3] | pest or weed control at 121.5 g/ha [1, 4] | pest or weed control at 121.5 g/ha [1, 5] | pest or weed control at 100 ppm [2, 6] | pest or weed control at 121.5 g/ha [2, 6] | pest or weed control at 100 ppm [2, 7]

CCOCC(=O)OCOc1c(OC)ccnc1C(=O)N[C@H]1CCC[C@H](CCC(C)C)[C@@H](OCCCC(F)(F)F)[C@H](C)OC1=O [Compound F162]
0 to 80%: pest or weed control at 121.5 g/ha [2, 7]
80 to 100%: pest or weed control at 100 ppm [1, 3] | pest or weed control at 121.5 g/ha [1, 4] | pest or weed control at 100 ppm [1, 8] | pest or weed control at 121.5 g/ha [1, 5] | pest or weed control at 100 ppm [2, 6] | pest or weed control at 121.5 g/ha [2, 6] | pest or weed control at 100 ppm [2, 7]

COc1ccnc(C(=O)N[C@H]2CCC[C@H](CC3CCCC3)[C@@H](OC(=O)C(C)C)[C@H](C)OC2=O)c1O [Compound F35]
80 to 100%: pest or weed control at 100 ppm [1, 3]
0 to 80%: pest or weed control at 100 ppm [2, 6]

COc1ccnc(C(=O)N[C@H]2CCC[C@H](C)[C@@H](Oc3ccccc3)[C@H](C)OC2=O)c1O [Compound F38]
80 to 100%: pest or weed control at 100 ppm [1, 3] | pest or weed control at 100 ppm [2, 6] | pest or weed control at 100 ppm [2, 7]

CCOCC(=O)OCOc1c(OC)ccnc1C(=O)N[C@H]1CCC[C@H](CC2CCCC2)[C@@H](OCC2CC2)[C@H](C)OC1=O [Compound F178]
80 to 100%: pest or weed control at 100 ppm [1, 3] | pest or weed control at 121.5 g/ha [1, 4] | pest or weed control at 100 ppm [1, 8] | pest or weed control at 121.5 g/ha [1, 5] | pest or weed control at 100 ppm [2, 6] | pest or weed control at 121.5 g/ha [2, 6] | pest or weed control at 100 ppm [2, 7]
0 to 80%: pest or weed control at 121.5 g/ha [2, 7]

COc1ccnc(C(=O)N[C@H]2CCC[C@H](CC3CCCC3)[C@@H](Oc3ccccc3)[C@H](C)OC2=O)c1O [Compound F27]
80 to 100%: pest or weed control at 100 ppm [1, 3] | pest or weed control at 100 ppm [1, 8] | pest or weed control at 100 ppm [2, 6] | pest or weed control at 100 ppm [2, 7]

CCOCC(=O)OCOc1c(OC)ccnc1C(=O)N[C@H]1CCC[C@H](Cc2ccc(F)cc2)[C@@H](Oc2ccccc2)[C@H](C)OC1=O [Compound F165]
0 to 80%: pest or weed control at 121.5 g/ha [2, 7]
80 to 100%: pest or weed control at 100 ppm [1, 3] | pest or weed control at 121.5 g/ha [1, 4] | pest or weed control at 100 ppm [1, 8] | pest or weed control at 121.5 g/ha [1, 5] | pest or weed control at 100 ppm [2, 6] | pest or weed control at 121.5 g/ha [2, 6] | pest or weed control at 100 ppm [2, 7]

CCOCC(=O)OCOc1c(OC)ccnc1C(=O)N[C@H]1CCC[C@H](Cc2ccc(OC)cc2)[C@@H](OCC2CC2)[C@H](C)OC1=O [Compound F177]
80 to 100%: pest or weed control at 100 ppm [1, 3] | pest or weed control at 121.5 g/ha [1, 4] | pest or weed control at 100 ppm [1, 8] | pest or weed control at 121.5 g/ha [1, 5] | pest or weed control at 100 ppm [2, 6] | pest or weed control at 121.5 g/ha [2, 6] | pest or weed control at 100 ppm [2, 7] | pest or weed control at 121.5 g/ha [2, 7]

COc1ccnc(C(=O)N[C@H]2CCC[C@H](CCOc3ccccc3)[C@@H](Oc3ccccc3)[C@H](C)OC2=O)c1O [Compound F44]
80 to 100%: pest or weed control at 100 ppm [1, 3] | pest or weed control at 100 ppm [1, 8] | pest or weed control at 100 ppm [2, 6] | pest or weed control at 100 ppm [2, 7]

CCCO[C@@H]1[C@@H](CC2CCCC2)CCC[C@H](NC(=O)c2nccc(OC)c2OC(C)=O)C(=O)O[C@H]1C [Compound F74]
80 to 100%: pest or weed control at 100 ppm [1, 3] | pest or weed control at 121.5 g/ha [1, 4] | pest or weed control at 100 ppm [1, 8] | pest or weed control at 121.5 g/ha [1, 5] | pest or weed control at 100 ppm [2, 6] | pest or weed control at 121.5 g/ha [2, 6] | pest or weed control at 100 ppm [2, 7]
0 to 80%: pest or weed control at 121.5 g/ha [2, 7]

C=C[C@H]1CCC[C@H](NC(=O)c2nccc(OC)c2O)C(=O)O[C@@H](C)[C@@H]1Oc1ccccc1 [Compound F61]
80 to 100%: pest or weed control at 100 ppm [1, 3] | pest or weed control at 100 ppm [2, 6]
0 to 80%: pest or weed control at 100 ppm [2, 7]
